Data published in patent US20240116951A1, “HETEROCYCLIC COMPOUNDS AND USES THEREOF” (Kumquat Biosciences Inc., priority 2022, published 2024).
Where two headings read alike, the source gives them in different places.

What was measured:
Type in all cases: binding
KRAS G12S = molecular target: T1, KRAS G12S (Homo sapiens, UniProt P01116, G12S); experiment: HTRF assay of K-Ras G12S interaction with SOS1 (PPI-HTRF)
T1 construct: made in house; host or cells: E. coli, e.g. BL21 (DE3)
Outline: (§1)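 Read-out: HTRF ratio 665/620 nm (ex 337 nm) after ~10 min or longer. Donor anti-GST-Eu(K) on GST-K-Ras and acceptor anti-6His-XL665 on His-hSOS1, in HEPES pH 7.4 buffer with DTT, BSA and Igepal. Duplicate dilution series from 10 μM down to 0.01 μM gave IC50 values.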

KRAS WT = molecular target: T2, KRAS WT (Homo sapiens, UniProt P01116); experiment: HTRF assay of wildtype K-Ras interaction with SOS1 (PPI-HTRF)
T2 construct: made in house; host or cells: E. coli, e.g. BL21 (DE3)
Outline: as §1

KRAS G12D = molecular target: T3, KRAS G12D (Homo sapiens, UniProt P01116, G12D); experiment: HTRF assay of K-Ras G12D interaction with SOS1 (PPI-HTRF)
T3 construct: made in house; host or cells: E. coli, e.g. BL21 (DE3)
Outline: as §1

[1] = 5 nM KRAS G12S, read-out: PPI-HTRF-5 nM KRAS G12S
[2] = HTRF, 5 nM KRAS WT, read-out: PPI-HTRF-5 nM KRAS WT
[3] = HTRF, 5 nM KRAS G12D, read-out: PPI-HTRF-5 nM KRAS G12D

Measured: IC50

T2 sequence (P01116 1-188 isoform P01116-2): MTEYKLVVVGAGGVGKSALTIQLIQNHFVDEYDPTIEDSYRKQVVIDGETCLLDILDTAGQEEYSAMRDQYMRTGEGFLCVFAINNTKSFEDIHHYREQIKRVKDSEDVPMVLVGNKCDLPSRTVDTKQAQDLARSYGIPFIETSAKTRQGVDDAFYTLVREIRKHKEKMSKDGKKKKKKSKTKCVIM
T1 sequence (P01116 1-188 isoform P01116-2 G12S): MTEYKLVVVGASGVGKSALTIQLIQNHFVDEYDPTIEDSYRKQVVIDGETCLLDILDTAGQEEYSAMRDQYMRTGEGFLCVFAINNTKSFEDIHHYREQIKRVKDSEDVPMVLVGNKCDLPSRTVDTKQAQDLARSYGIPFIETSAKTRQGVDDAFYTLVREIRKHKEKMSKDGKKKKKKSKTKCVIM
T3 sequence (P01116 1-188 isoform P01116-2 G12D): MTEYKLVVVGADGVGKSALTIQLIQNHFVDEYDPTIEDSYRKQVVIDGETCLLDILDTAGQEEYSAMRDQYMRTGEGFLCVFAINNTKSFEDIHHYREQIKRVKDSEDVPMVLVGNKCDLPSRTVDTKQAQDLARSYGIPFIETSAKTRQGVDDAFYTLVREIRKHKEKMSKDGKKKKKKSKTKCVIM

N#Cc1c(N)sc2c(F)ccc(-c3c(F)c4nc(OC[C@@]56CCCN5C[C@H](F)C6)nc(N5CCC6(CCN6)C5)c4c(=O)n3C3CC3)c12 (stereo partly drawn) [Compound 333, 2-amino-4-(6-cyclopropyl-8-fluoro-2-(((2R,7aS)-2-fluorotetrahydro-1H-pyrrolizin-7a(5H)-yl)methoxy)-5-oxo-4-(1,6-diazaspiro[3.4]octan-6-yl)-5,6-dihydropyrido[4,3-d]pyrimidin-7-yl)-7-fluorobenzo[b]thiophene-3-carbonitrile]
< 5 µM: KRAS G12S; [1] | KRAS WT; [2] | KRAS G12D; [3]

Cc1ncn(C(=O)N2CC[C@]23CCN(c2nc(OC[C@@]45CCCN4C[C@H](F)C5)nc4c(F)c(-c5ccc(F)c6sc(N)c(C#N)c56)c(Cl)cc24)C3)n1 [Compound 222, 2-amino-4-(6-chloro-8-fluoro-2-(((2R,7aS)-2-fluorotetrahydro-1H-pyrrolizin-7a(5H)-yl)methoxy)-4-((S)-1-(3-methyl-1H-1,2,4-triazole-1-carbonyl)-1,6-diazaspiro[3.4]octan-6-yl)quinazolin-7-yl)-7-fluorobenzo[b]thiophene-3-carbonitrile]
< 5 µM: KRAS G12S; [1] | KRAS WT; [2] | KRAS G12D; [3]

N#Cc1c(N)sc2c(F)ccc(-c3c(Cl)cc4c(N5CCC6(CCCN6C(=O)[C@@H]6N[C@H]6C6CC6)CC5)nc(OC[C@@]56CCCN5C[C@H](F)C6)nc4c3F)c12 [Compound 295, 2-amino-4-(6-chloro-4-(1-((2R,3S)-3-cyclopropylaziridine-2-carbonyl)-1,8-diazaspiro[4.5]decan-8-yl)-8-fluoro-2-(((2R,7aS)-2-fluorotetrahydro-1H-pyrrolizin-7a(5H)-yl)methoxy)quinazolin-7-yl)-7-fluorobenzo[b]thiophene-3-carbonitrile]
< 5 µM: KRAS G12S; [1] | KRAS WT; [2] | KRAS G12D; [3]

N#Cc1c(N)sc2c(F)ccc(-c3c(Cl)cc4c(N5CCC6(CC5)CCN6C(=O)C5CC5(F)F)nc(OC[C@@]56CCCN5C[C@H](F)C6)nc4c3F)c12 (stereo partly drawn) [Compound 342, 2-amino-4-(6-chloro-4-(1-(2,2-difluorocyclopropane-1-carbonyl)-1,7-diazaspiro[3.5]nonan-7-yl)-8-fluoro-2-(((2R,7aS)-2-fluorotetrahydro-1H-pyrrolizin-7a(5H)-yl)methoxy)quinazolin-7-yl)-7-fluorobenzo[b]thiophene-3-carbonitrile]
< 5 µM: KRAS G12S; [1] | KRAS WT; [2] | KRAS G12D; [3]

N#Cc1c(N)sc2c(F)ccc(-c3c(Cl)cc4c(N5CCC6(C5)NCC6(F)F)nc(OC[C@@]56CCCN5C[C@H](F)C6)nc4c3F)c12 (stereo partly drawn) [Compound 232, 2-amino-4-(6-chloro-4-(3,3-difluoro-1,6-diazaspiro[3.4]octan-6-yl)-8-fluoro-2-(((2R,7aS)-2-fluorotetrahydro-1H-pyrrolizin-7a(5H)-yl)methoxy)quinazolin-7-yl)-7-fluorobenzo[b]thiophene-3-carbonitrile]
< 5 µM: KRAS G12S; [1] | KRAS WT; [2] | KRAS G12D; [3]

N#Cc1c(N)sc2c(F)ccc(-c3c(Cl)cc4c(N5CCC6(CCN6C(=O)Oc6ccc([N+](=O)[O-])cc6)C5)nc(OC[C@@]56CCCN5C[C@H](F)C6)nc4c3F)c12 (stereo partly drawn) [Compound 298, 4-nitrophenyl 6-(7-(2-amino-3-cyano-7-fluorobenzo[b]thiophen-4-yl)-6-chloro-8-fluoro-2-(((2R,7aS)-2-fluorotetrahydro-1H-pyrrolizin-7a(5H)-yl)methoxy)quinazolin-4-yl)-1,6-diazaspiro[3.4]octane-1-carboxylate]
< 5 µM: KRAS G12S; PPI-HTRF-5 nM KRAS G12S | KRAS WT | KRAS G12D

Nc1nc2c(-c3c(Cl)cc4c(N5CCCC6(CCN6)CC5)nc(OC[C@@]56CCCN5C[C@H](F)C6)nc4c3F)ccc(F)c2s1 (stereo partly drawn) [Compound 276, 4-(6-chloro-8-fluoro-2-(((2R,7aS)-2-fluorotetrahydro-1H-pyrrolizin-7a(5H)-yl)methoxy)-4-(1,7-diazaspiro[3.6]decan-7-yl)quinazolin-7-yl)-7-fluorobenzo[d]thiazol-2-amine]
< 5 µM: KRAS G12S; [1] | KRAS WT; [2] | KRAS G12D; [3]

COCc1ncn(C(=O)N2CCC23CCN(c2nc(OC[C@@]45CCCN4C[C@H](F)C5)nc4c(F)c(-c5ccc(F)c6sc(N)c(C#N)c56)c(Cl)cc24)C3)n1 (stereo partly drawn) [Compound 313, 2-amino-4-(6-chloro-8-fluoro-2-(((2R,7aS)-2-fluorotetrahydro-1H-pyrrolizin-7a(5H)-yl)methoxy)-4-(1-(3-(methoxymethyl)-1H-1,2,4-triazole-1-carbonyl)-1,6-diazaspiro[3.4]octan-6-yl)quinazolin-7-yl)-7-fluorobenzo[b]thiophene-3-carbonitrile]
< 5 µM: KRAS G12S; [1] | KRAS WT; [2] | KRAS G12D; [3]

N#Cc1c(N)sc2c(F)ccc(-c3c(Cl)cc4c(N5CCC6(CCN6C(=O)[C@@H]6N[C@H]6C6CC6)C5)nc(OC[C@@]56CCCN5C[C@H](F)C6)nc4c3F)c12 (stereo partly drawn) [Compound 296, 2-amino-4-(6-chloro-4-(1-((2R,3S)-3-cyclopropylaziridine-2-carbonyl)-1,6-diazaspiro[3.4]octan-6-yl)-8-fluoro-2-(((2R,7aS)-2-fluorotetrahydro-1H-pyrrolizin-7a(5H)-yl)methoxy)quinazolin-7-yl)-7-fluorobenzo[b]thiophene-3-carbonitrile]
< 5 µM: KRAS G12S; [1] | KRAS WT; [2] | KRAS G12D; [3]

Nc1nc2c(-c3c(F)c4nc(OC[C@@]56CCCN5C[C@H](F)C6)nc(N5CCC6(CCN6C(=O)n6cncn6)C5)c4c(=O)n3C3CC3)ccc(F)c2s1 (stereo partly drawn) [Compound 257, 4-(1-(1H-1,2,4-triazole-1-carbonyl)-1,6-diazaspiro[3.4]octan-6-yl)-7-(2-amino-7-fluorobenzo[d]thiazol-4-yl)-6-cyclopropyl-8-fluoro-2-(((2R,7aS)-2-fluorotetrahydro-1H-pyrrolizin-7a(5H)-yl)methoxy)pyrido[4,3-d]pyrimidin-5(6H)-one]
< 5 µM: KRAS G12S; [1] | KRAS WT; [2] | KRAS G12D; [3]

C[C@H](Oc1nc(N2CCCC3(CCN3)C2)c2cc(Cl)c(-c3ccc(F)c4sc(N)c(C#N)c34)c(F)c2n1)[C@@H]1CCCN1C (stereo partly drawn) [Compound 210, 2-amino-4-(6-chloro-8-fluoro-2-((S)-1-((S)-1-methylpyrrolidin-2-yl)ethoxy)-4-(1,6-diazaspiro[3.5]nonan-6-yl)quinazolin-7-yl)-7-fluorobenzo[b]thiophene-3-carbonitrile]
< 5 µM: KRAS G12S; [1] | KRAS WT; [2] | KRAS G12D; [3]

N#Cc1c(N)sc2c(F)ccc(-c3c(Cl)cc4c(N5CCCC6(CCN6)C5)nc(OC[C@@]56CCCN5C[C@H](F)C6)nc4c3F)c12 (stereo partly drawn) [Compound 236, 2-amino-4-(6-chloro-8-fluoro-2-(((2R,7aS)-2-fluorotetrahydro-1H-pyrrolizin-7a(5H)-yl)methoxy)-4-(1,6-diazaspiro[3.5]nonan-6-yl)quinazolin-7-yl)-7-fluorobenzo[b]thiophene-3-carbonitrile]
< 5 µM: KRAS G12S; [1] | KRAS WT; [2] | KRAS G12D; [3]

C[C@H](Oc1nc(N2CC[C@@]3(CCN3C(=O)n3cncn3)C2)c2cc(Cl)c(-c3ccc(F)c4sc(N)c(C#N)c34)c(F)c2n1)[C@@H]1CCCN1C (single isomer, unassigned) [Compound 299]
< 5 µM: KRAS G12S; [1] | KRAS WT; [2] | KRAS G12D; [3]

COCC(=O)N1CCC12CCN(c1nc(O[C@@H](C)[C@@H]3CCCN3C)nc3c(F)c(-c4ccc(F)c5sc(N)c(C#N)c45)c(Cl)cc13)C2 (stereo partly drawn) [Compound 254, 2-amino-4-(6-chloro-8-fluoro-4-(1-(2-methoxyacetyl)-1,6-diazaspiro[3.4]octan-6-yl)-2-((S)-1-((S)-1-methylpyrrolidin-2-yl)ethoxy)quinazolin-7-yl)-7-fluorobenzo[b]thiophene-3-carbonitrile]
< 5 µM: KRAS G12S; [1] | KRAS WT; [2] | KRAS G12D; [3]

N#Cc1c(N)sc2c(F)ccc(-c3c(Cl)cc4c(N5CCC6(CCN6C(=O)C(F)Cl)C5)nc(OC[C@@]56CCCN5C[C@H](F)C6)nc4c3F)c12 (stereo partly drawn) [Compound 244, 2-amino-4-(6-chloro-4-(1-(2-chloro-2-fluoroacetyl)-1,6-diazaspiro[3.4]octan-6-yl)-8-fluoro-2-(((2R,7aS)-2-fluorotetrahydro-1H-pyrrolizin-7a(5H)-yl)methoxy)quinazolin-7-yl)-7-fluorobenzo[b]thiophene-3-carbonitrile]
< 5 µM: KRAS G12S; [1] | KRAS WT; [2] | KRAS G12D; [3]

N#CCC1CN(c2nc(OC[C@@]34CCCN3C[C@H](F)C4)nc3c(F)c(-c4ccc(F)c5sc(N)c(C#N)c45)c(Cl)cc23)CC12CCN2C(=O)n1cnc(Cl)n1 (stereo partly drawn) [Compound 328, 2-amino-4-(6-chloro-4-(1-(3-chloro-1H-1,2,4-triazole-1-carbonyl)-8-(cyanomethyl)-1,6-diazaspiro[3.4]octan-6-yl)-8-fluoro-2-(((2R,7aS)-2-fluorotetrahydro-1H-pyrrolizin-7a(5H)-yl)methoxy)quinazolin-7-yl)-7-fluorobenzo[b]thiophene-3-carbonitrile]
< 5 µM: KRAS G12S; [1] | KRAS WT; [2] | KRAS G12D; [3]
